These results are taken from PMC6956567 (Bioorganic & medicinal chemistry letters, 2014).

Test [1] has as its target human TRPV1 (Homo sapiens, UniProt Q8NER1). Nature of the test: FLIPR antagonism of capsaicin. The note with it: for fold better antagonism than linear derivative 15c: Ki(CAP) versus 15c; for antagonism of capsaicin response, in words: capsaicin 100 nM; for fold more potent than the corresponding racemate: Ki(CAP), (S)-isomer versus racemate. Format: cell-based.
Test [2] has as its system capsaicin-induced hypothermia. Nature of the test: Inhibition of capsaicin-induced hypothermia. It is filed as in vivo, mouse. The conditions noted are these: 15 min before 3 mg/kg ip capsaicin, assayed 30 min after capsaicin.
Test [3] deals with CCI-induced cold allodynia. Nature of the test: Bennett model. It is filed as in vivo, rat.

Chain of human TRPV1 (Q8NER1 whole entry): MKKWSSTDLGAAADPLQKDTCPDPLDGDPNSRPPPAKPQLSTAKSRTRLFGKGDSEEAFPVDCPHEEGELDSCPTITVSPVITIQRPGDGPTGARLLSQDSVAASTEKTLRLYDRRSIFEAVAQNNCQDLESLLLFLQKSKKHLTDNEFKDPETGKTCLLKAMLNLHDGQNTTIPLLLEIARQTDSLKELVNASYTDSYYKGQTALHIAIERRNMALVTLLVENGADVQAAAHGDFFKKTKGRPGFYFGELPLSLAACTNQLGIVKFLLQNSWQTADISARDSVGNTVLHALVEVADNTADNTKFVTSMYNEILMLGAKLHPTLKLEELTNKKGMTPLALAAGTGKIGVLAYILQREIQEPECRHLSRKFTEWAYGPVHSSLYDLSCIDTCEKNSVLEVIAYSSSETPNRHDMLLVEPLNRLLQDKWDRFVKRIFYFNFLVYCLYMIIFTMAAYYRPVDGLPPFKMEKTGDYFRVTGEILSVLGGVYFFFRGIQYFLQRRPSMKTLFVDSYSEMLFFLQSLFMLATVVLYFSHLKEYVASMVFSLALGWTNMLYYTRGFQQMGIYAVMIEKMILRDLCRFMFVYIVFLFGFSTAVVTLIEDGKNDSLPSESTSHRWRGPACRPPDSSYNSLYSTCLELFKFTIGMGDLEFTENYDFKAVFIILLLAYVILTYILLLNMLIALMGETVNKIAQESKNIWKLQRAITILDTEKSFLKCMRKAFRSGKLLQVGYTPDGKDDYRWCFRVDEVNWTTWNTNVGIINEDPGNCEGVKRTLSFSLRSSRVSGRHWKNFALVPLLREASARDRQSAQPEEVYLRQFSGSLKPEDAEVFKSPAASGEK

For `CC(C)CCCc1nc(C(F)(F)F)ccc1CNC(=O)C(C)c1ccc(NS(C)(=O)=O)c(F)c1` (stereo not drawn) [15d], the “fold better antagonism than linear derivative 15c” value in test [1] was “ca. 2 fold”.

For `CC(C(=O)NCc1ccc(C(F)(F)F)nc1CCC(C)(C)C)c1ccc(NS(C)(=O)=O)c(F)c1` (stereo not drawn) [15e], the “fold better antagonism than linear derivative 15c” value in test [1] is recorded as “ca. 2 fold”.

Consider `CC(C(=O)NCc1ccc(C(F)(F)F)nc1C1CCCCC1)c1ccc(NS(C)(=O)=O)c(F)c1` (stereo not drawn) [15f], for which, in test [1], the “fold better antagonism than linear derivative 15c” value is given as 2.5 fold. The “CAP-induced hypothermia, inhibition” value worked out at 24 % inh in test [2] (0.1 mg/kg po) and 78 % inh in test [2] (0.3 mg/kg po). Besides, in test [3] (10 mg/kg po), the “Bennett model, maximal possible effect” value is on record as 60 MPE. The “anti-allodynic activity, max effect” value in test [3] (at 10 mg/kg po) was determined as 60%.

Regarding `CCC1CCC(c2nc(C(F)(F)F)ccc2CNC(=O)C(C)c2ccc(NS(C)(=O)=O)c(F)c2)CC1` (stereo not drawn) [15h], the “fold increase in potency compared to 15f” value in test [1] (Ki(CAP) versus 15f) was determined as 2 fold.

Take `CC(C(=O)NCc1ccc(C(F)(F)F)nc1C1CC2CCC1C2)c1ccc(NS(C)(=O)=O)c(F)c1` (stereo not drawn) [15n]: the “fold less potent than monocycle 15f” value in test [1] (Ki(CAP) versus 15f) is 2.5 fold.

`CC(C)=Cc1nc(C(F)(F)F)ccc1CNC(=O)C(C)c1ccc(NS(C)(=O)=O)c(F)c1` (stereo not drawn) [16a]: the “antagonism of capsaicin response, in words” value (“antagonism … in words” for short) in test [1] is “moderate antagonistic activity”.

In the case of `CCC/C=C\c1nc(C(F)(F)F)ccc1CNC(=O)C(C)c1ccc(NS(C)(=O)=O)c(F)c1` (stereo not drawn) [16c], the “fold less potent than saturated derivative 15b” value in test [1] (Ki(CAP) versus 15b) is on record as 2 fold.

As to `C[C@H](C(=O)NCc1ccc(C(F)(F)F)nc1C1CCCCC1)c1ccc(NS(C)(=O)=O)c(F)c1` [(S)-15f], the “fold more potent than the corresponding racemate” value in test [1] amounted to 2 fold.

Consider `CCC1CCC(c2nc(C(F)(F)F)ccc2CNC(=O)[C@@H](C)c2ccc(NS(C)(=O)=O)c(F)c2)CC1` (stereo partly drawn) [(S)-15h], for which, in test [1], the “fold more potent than the corresponding racemate” value is reported as “ca. 2 fold”.

Take `C[C@H](C(=O)NCc1ccc(C(F)(F)F)nc1C1CCC(C)(C)CC1)c1ccc(NS(C)(=O)=O)c(F)c1` [(S)-15l]: in test [1], the “fold more potent than the corresponding racemate” value is on record as “ca. 2 fold”.

Regarding `C[C@H](C(=O)NCc1ccc(C(F)(F)F)nc1C1CC2CCC1C2)c1ccc(NS(C)(=O)=O)c(F)c1` (stereo partly drawn) [(S)-15n], the “fold more potent than the corresponding racemate” value in test [1] was “ca. 2 fold”.

As for `CC1CC=C(c2nc(C(F)(F)F)ccc2CNC(=O)[C@@H](C)c2ccc(NS(C)(=O)=O)c(F)c2)CC1` (stereo partly drawn) [(S)-15p], the “fold more potent than the corresponding racemate” value in test [1] is recorded as “ca. 2 fold”.

As for `C[C@H](C(=O)NCc1ccc(C(F)(F)F)nc1C1=CCC(C(C)(C)C)CC1)c1ccc(NS(C)(=O)=O)c(F)c1` (stereo partly drawn) [(S)-15t], in test [1], the “fold more potent than the corresponding racemate” value was “ca. 2 fold”.

`C[C@H](C(=O)NCc1ccc(C(F)(F)F)nc1C1=CCC(C)(C)CC1)c1ccc(NS(C)(=O)=O)c(F)c1` [(S)-15u]: the “fold more potent than the corresponding racemate” value in test [1] is “ca. 2 fold”.

On to `CC(C(=O)NCc1ccc(C(F)(F)F)nc1Cl)c1ccc(NS(C)(=O)=O)c(F)c1` (stereo not drawn) [compound 8], for which the “antagonism … in words” value in test [1] was “weak antagonists”.

In the case of `CC(C(=O)NCc1ccc(C(F)(F)F)nc1Br)c1ccc(NS(C)(=O)=O)c(F)c1` (stereo not drawn) [compound 9], the “antagonism … in words” value in test [1] was “weak antagonists”.

In the case of `CC(C)C[C@H](CN)CC(=O)O` [pregabalin, reference compound], in test [3] (at 100 mg/kg), the “anti-allodynic activity, max effect” value is listed as 69%.
